Test [1] concerns the target T1, PI3Kδ (p110δ/p85α) (Homo sapiens, UniProt O00329).
T1 construct: purchased Invitrogen
As to the kind of experiment: PI3K biochemical enzyme assay (Adapta universal kinase assay), p110 delta/p85 alpha. Particulars: for inhibition at 0.1 µM / inhibition at 1 µM / inhibition at 10 µM: read-out: PI3Kδ % inhib; for IC50: Table 2, PI3k biochemical assays, read-out: p110δ/p85α IC50. On the procedure:
(§1) This example describes a method of obtaining in vitro activity data concerning the effect of compounds of on various PI3K isoforms. The effect of compounds on the kinase activity of Class I PI3Ks was measured at Invitrogen by using the Adapta® universal kinase assay. It was a homogenous, fluorescent based immunoassay for the detection of ADP produced by the kinase reaction. This assay can be divided into two phases: a kinase reaction phase, and an ADP detection phase. In the kinase reaction phase, all components required for the kinase reaction were added to the well, and the reaction was allowed to incubate for 60 minutes. After the reaction, a detection solution consisting of a europium labeled anti-ADP antibody, an Alexa Fluor® 647 labeled ADP tracer, and EDTA (to stop the kinase reaction) was added to the assay well. ADP formed by the kinase reaction (in the absence of an inhibitor) displaced the Alexa Fluor® 647 labeled ADP tracer from the antibody, resulting in a decrease in the TR-FRET signal.
(§2) ADP formation was determined by calculating the emission ratio from the assay well. The emission ratio was calculated by dividing the intensity of the tracer (acceptor) emission by the intensity of the Eu (donor) emission at 615 nm as shown in the equation below.
(§3) The Test Compounds were screened in 1% DMSO (final) in the well. All Substrate/Kinase Mixtures were diluted to a 2× working concentration in the appropriate Kinase Buffer as described below for the individual kinase:
The 2× p110 delta/p85 alpha/PIP2:PS mixture was prepared in 50 mM HEPES pH 7.5, 100 mM NaCl, 0.03% CHAPS, 3 mM mgCl2, 1 mM EGTA. The final 10 μL Kinase Reaction consisted of 0.35-2.6 ng p110 delta/p85 alpha and 50 μM PIP2:PS in 32.5 mM HEPES pH 7.5, 50 mM NaCl, 0.015% CHAPS, 1.5 mM mgCl2, 0.5 mM EGTA. After the 1 hour Kinase Reaction incubation, […] of Detection Mix was added.
(§4) The Detection mix consisted of EDTA (30 mM), Eu-anti-ADP antibody (30 nM) and ADP tracer. All ATP Solutions were diluted to a 4× working concentration in water and used at the Km apparent concentrations for each individual kinase.

For test [2], the target named is T2, PI3Kβ (p110β/p85α) (Homo sapiens, UniProt P42338).
T2 construct: purchased Invitrogen
T2 sequence (P42338 whole entry): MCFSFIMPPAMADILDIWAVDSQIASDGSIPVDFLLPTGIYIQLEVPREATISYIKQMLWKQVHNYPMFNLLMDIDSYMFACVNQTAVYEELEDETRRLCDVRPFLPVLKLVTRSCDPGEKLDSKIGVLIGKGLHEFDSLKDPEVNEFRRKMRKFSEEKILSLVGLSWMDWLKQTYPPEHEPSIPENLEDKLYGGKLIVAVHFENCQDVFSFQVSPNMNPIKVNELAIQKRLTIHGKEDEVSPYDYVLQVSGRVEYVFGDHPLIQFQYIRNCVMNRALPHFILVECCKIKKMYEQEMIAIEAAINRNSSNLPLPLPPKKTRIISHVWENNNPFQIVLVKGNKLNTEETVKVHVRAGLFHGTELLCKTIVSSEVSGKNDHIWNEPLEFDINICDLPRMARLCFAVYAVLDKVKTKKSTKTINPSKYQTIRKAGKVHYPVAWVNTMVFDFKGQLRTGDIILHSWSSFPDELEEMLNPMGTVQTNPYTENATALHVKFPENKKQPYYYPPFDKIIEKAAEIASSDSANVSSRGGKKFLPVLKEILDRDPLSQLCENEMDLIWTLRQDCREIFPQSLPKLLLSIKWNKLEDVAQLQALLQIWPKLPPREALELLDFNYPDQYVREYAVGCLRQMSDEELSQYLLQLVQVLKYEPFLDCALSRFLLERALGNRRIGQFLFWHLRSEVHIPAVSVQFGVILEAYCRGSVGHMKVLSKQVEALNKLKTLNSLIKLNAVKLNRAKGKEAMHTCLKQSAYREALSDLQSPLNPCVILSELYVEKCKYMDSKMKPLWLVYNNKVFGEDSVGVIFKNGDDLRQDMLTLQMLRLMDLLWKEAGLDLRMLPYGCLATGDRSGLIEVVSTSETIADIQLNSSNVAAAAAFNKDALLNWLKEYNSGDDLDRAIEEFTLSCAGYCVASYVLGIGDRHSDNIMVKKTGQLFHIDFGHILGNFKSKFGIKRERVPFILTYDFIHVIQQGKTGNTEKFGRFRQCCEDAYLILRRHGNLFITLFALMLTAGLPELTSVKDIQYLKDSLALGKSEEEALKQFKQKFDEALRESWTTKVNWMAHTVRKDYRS
T2 sequence (P27986 whole entry partner): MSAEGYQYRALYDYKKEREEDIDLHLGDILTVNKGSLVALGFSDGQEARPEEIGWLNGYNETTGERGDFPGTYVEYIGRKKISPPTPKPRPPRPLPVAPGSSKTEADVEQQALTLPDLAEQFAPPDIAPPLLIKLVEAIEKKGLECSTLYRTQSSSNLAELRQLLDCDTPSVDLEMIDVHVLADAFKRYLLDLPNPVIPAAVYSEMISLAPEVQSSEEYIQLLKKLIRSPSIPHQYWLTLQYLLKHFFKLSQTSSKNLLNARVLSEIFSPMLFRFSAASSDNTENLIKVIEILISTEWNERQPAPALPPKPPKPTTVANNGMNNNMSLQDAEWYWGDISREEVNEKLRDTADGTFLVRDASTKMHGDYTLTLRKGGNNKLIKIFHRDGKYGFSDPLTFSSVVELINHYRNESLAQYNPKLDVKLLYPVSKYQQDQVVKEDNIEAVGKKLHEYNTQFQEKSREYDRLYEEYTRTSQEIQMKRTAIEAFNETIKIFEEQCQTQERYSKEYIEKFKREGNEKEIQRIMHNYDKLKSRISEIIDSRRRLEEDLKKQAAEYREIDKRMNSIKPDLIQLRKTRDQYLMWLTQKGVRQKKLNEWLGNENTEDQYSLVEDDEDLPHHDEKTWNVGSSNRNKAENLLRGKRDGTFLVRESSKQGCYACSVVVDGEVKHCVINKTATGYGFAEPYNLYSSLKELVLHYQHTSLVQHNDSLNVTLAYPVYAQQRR
The test can be described thus: PI3K biochemical enzyme assay (Adapta universal kinase assay), p110 beta/p85 alpha. Particulars: for IC50: Table 2, PI3k biochemical assays, read-out: p110β/p85α IC50. The protocol:
as §1, §2, §3
The 2× p 110beta/p85 alpha/PIP2:PS mixture was prepared in 50 mM HEPES pH 7.5, 100 mM NaCl, 0.03% CHAPS, 1 mM EGTA, 3 mM mgCl2, and 2 mM DTT. The final 10 μL Kinase Reaction consisted of 35.4 ng p110 beta/p85 alpha and 50 μM PIP2:PS. After the 1 hour Kinase Reaction incubation, 5 μL of Detection Mix was added.
as §4

T1 sequence (O00329 whole entry): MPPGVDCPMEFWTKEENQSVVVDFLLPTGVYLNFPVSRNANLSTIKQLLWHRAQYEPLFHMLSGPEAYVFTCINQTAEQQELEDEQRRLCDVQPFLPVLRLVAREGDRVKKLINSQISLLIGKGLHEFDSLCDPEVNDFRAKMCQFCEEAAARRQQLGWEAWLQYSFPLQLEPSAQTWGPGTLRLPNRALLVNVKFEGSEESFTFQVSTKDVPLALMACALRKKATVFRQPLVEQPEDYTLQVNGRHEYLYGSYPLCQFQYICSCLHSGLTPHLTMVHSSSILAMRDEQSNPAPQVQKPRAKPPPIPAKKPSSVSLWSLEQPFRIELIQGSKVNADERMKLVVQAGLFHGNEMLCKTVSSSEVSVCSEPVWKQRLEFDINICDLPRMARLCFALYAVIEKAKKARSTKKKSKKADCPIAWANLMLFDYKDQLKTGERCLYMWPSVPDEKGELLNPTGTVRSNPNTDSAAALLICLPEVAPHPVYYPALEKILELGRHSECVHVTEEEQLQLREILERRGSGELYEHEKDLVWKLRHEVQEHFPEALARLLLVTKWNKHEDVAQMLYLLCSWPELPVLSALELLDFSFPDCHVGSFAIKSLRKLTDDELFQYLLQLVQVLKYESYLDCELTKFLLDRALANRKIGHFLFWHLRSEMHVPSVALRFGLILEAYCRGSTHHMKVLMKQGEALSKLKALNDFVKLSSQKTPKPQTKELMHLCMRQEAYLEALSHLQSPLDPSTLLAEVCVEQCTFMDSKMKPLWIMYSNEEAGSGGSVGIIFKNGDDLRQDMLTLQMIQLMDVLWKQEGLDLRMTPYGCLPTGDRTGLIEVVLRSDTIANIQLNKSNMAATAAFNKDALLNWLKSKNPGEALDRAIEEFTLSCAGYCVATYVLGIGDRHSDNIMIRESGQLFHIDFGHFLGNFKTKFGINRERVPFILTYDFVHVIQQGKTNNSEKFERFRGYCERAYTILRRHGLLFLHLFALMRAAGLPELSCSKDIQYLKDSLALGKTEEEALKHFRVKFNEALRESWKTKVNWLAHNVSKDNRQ
T1 sequence (P27986 whole entry partner): as the sequence (P27986 whole entry partner) above

With `Cc1cccc(-c2nc3ccccc3nc2C(C)Nc2ncnc3[nH]cnc23)c1` (stereo not drawn) [Compound Q3], in test [1], the inhibition at 0.1 µM stood at 48%, the inhibition at 1 µM was 86%, the inhibition at 10 µM was found to be 100% and the IC50 amounted to 36 nM. For the same compound, the inhibition at 10 µM in test [2] (read-out: PI3Kβ % inhib) is 25%. Further, the IC50 in test [2] was greater than 10000 nM.
As for `CC(Nc1ncnc2[nH]cnc12)c1nc2ccccc2nc1-c1cc(F)cc(F)c1` (stereo not drawn) [Compound Q2, N-{1-[3-(3,5-difluorophenyl)quinoxalin-2-yl]ethyl}-9H-purin-6-amine], in test [1], the inhibition at 0.1 µM was 20%, the inhibition at 1 µM was 82%, the inhibition at 10 µM worked out at 100% and the IC50 worked out at 58 nM. In test [2] (read-out: PI3Kβ % inhib), the inhibition at 10 µM was 8%. Besides, the IC50 in test [2] was greater than 10000 nM.
In the case of `Cc1cccc2nc(C(C)Nc3nc(N)nc4[nH]cnc34)c(-c3ccc(F)cc3)nc12` (stereo not drawn) [Compound Q5], the inhibition at 1 µM came out at 69% in test [1] and 23% in test [2] (1 μM, read-out: PI3Kβ % inhib). For the same compound, the inhibition at 10 µM is 99% in test [1] and 85% in test [2] (read-out: PI3Kβ % inhib). Also, the results for the IC50 in test [1] and in test [2] were 2 nM and 459 nM, respectively.
`Cc1cccc2nc(C(C)Nc3nc(N)nc4[nH]cnc34)c(-c3ccccc3)nc12` (stereo not drawn) [Compound Q4]: in test [1], the inhibition at 0.1 µM came out at 77%, the inhibition at 1 µM was determined as 86%, the inhibition at 10 µM stood at 100% and the IC50 turned out to be 2 nM. Also, the inhibition at 10 µM in test [2] (read-out: PI3Kβ % inhib) was found to be 77%. Moreover, in test [2], the IC50 worked out at 1130 nM.
With `CCC(Nc1ncnc2[nH]cnc12)c1nc2ccccc2nc1-c1ccccc1` (stereo not drawn) [Compound Q12], in test [1], the inhibition at 0.1 µM is 71%, the inhibition at 1 µM is 83%, the inhibition at 10 µM came to 100% and the IC50 amounted to 17 nM. Also, in test [2] (read-out: PI3Kβ % inhib), the inhibition at 10 µM was 75%. In addition, the IC50 in test [2] is greater than 10000 nM.
Turning to `CCC(Nc1ncnc2[nH]cnc12)c1nc2cccc(F)c2nc1-c1ccccc1` (stereo not drawn) [Compound Q9], in test [1], the inhibition at 0.1 µM amounted to 72%, the inhibition at 1 µM was 86%, the inhibition at 10 µM stood at 100% and the IC50 is 37 nM. The inhibition at 10 µM in test [2] (read-out: PI3Kβ % inhib) was 60%. Also, the IC50 in test [2] is greater than 10000 nM.
As to `CC(Nc1ncnc2[nH]cnc12)c1nc2ccccc2nc1-c1ccccc1` (stereo not drawn) [Compound Q1], in test [1], the inhibition at 0.1 µM is 74%, the inhibition at 1 µM is 85%, the inhibition at 10 µM was determined as 100% and the IC50 amounted to 14 nM. Besides, in test [2] (read-out: PI3Kβ % inhib), the inhibition at 10 µM amounted to 72%. Further, the IC50 in test [2] was greater than 10000 nM.

The values above are taken from patent US20140235643A1, “NOVEL QUINOXALINE INHIBITORS OF PI3K” (GILEAD CALISTOGA LLC, priority 2011, published 2014).
